In patent publication US5164296A, “Assay methods involving ouabain” (priority 1990, dated 1992):

Experiments:
[1] = target: T1, washed human red blood cells (Homo sapiens, UniProt P05023); experiment: Inhibition of ouabain-sensitive ^86 Rb uptake by washed human red blood cells; type: cell-based
T1 construct: washed human red blood cells obtained by venipuncture; endogenous in cells; host or cells: washed human red blood cells (venipuncture)
Method: Fractions from the column were assayed for inhibition of ouabain-sensitive ^86 Rb uptake by washed human red blood cells obtained by venipuncture. This assay was used as an index of sodium transport activity (Hamlyn, J.M. et al, J. Biol. Chem., 264:7395-7404 (1989)).
More specifically, freshly washed cells were incubated for 2 hr at 37° C. (16% final hematocrit) in a final volume of 150 μl of flux buffer comprising 150 mM NaCl, 2.0 mM […] containing tracer amounts of ^86 Rb (DuPont--New England Nuclesr), 1.0 mM MgCl2, 1.0 mM Na2 HPO4, 2.0 mM CaCl2, 5.0 mM glucose and 20 mM HEPES-Tris (pH 7.4) (hereinafter "flux fubber"). Incubations were initiated by addition of column fractions to the cells. Aliquots were removed at various times and mixed with ice-cold flux buffer lacking ^86 Rb to quench the reactions. The quenched reactions were applied to a silicone oil cushion (Hysol XF1792B, Dexter Corp., Olean, N.Y.) in microcentrifuge tubes and centrifuged at 800×g for 10 min at 4° C. The red cell pellet was cut from deep-frozen tubes and trapped ^86 Rb was determined by γ-counting. Flux data were expressed as nmol of Rb uptake/10^8 cells. In each case, a value of 1.11×10^13 cells/liter was used to convert packed cell volumes to cell number for the flux data calculations. Ouabain-insensitive ^86 Rb uptake was estimated in parallel experiments by inclusion of 1.0 mM ouabain in the flux buffer. Ouabain-sensitive ^86 Rb uptake was taken as the total uptake minus that obtained in the presence of 1.0 mM ouabain.
The inhibition of ouabain-sensitive uptake of ^86 Rb was carried out as described above.

(Na^+ +K^+)ATPase [2] = target: T2, (Na^+ +K^+)ATPase (Canis lupus familiaris, UniProt P50997); experiment: Competition for ^3 H-ouabain binding to purified (Na^+ +K^+)ATPase; parameters: species or system dog; conditions: competition for ^3 H-ouabain binding
T2 construct: (Na^+ +K^+)ATPase was purified from the outer medulla of dog kidney; from tissue; host or cells: dog kidney outer medulla, purified membrane enzyme
Method: (§1) More specifically, (Na^+ +K^+)ATPase was purified from the outer medulla of dog kidney using the angle rotor procedure (Jorgensen, P.L., Biochim. Biophys. Acta, 356:36-52 (1974)) and stored frozen at -60° C. at 1.0 mg/ml in 25 mM imidazole-HCl (pH 7.5) and 1.0 mM EDTA, in small aliquots. (Na^+ +K^+)ATPase activity was determined at 37° C. from rate measurements in 1.0 ml of coupled optical assay mixture comprising 20 mM KCl, 100 mM NaCl, 4.5 mM MgSO4, 5.0 mM EGTA, 3.0 mM ATP-Na2, 1.2 mM phosphoenol-pyruvate-tricyclohexylammonium, 0.3 mM NADH, 100 mM TES-Tris (ph 7.4), 5.0 units of lactate dehydrogenase, and 5.0 units of pyruvate kinase (Hamlyn, J.M. et al, Nature, 300:650-652 (1982)). (Na^+ +K^+)ATPase activity was 99% ouabain-inhibitable with activities of 10-18 μmol/min/mg of membrane protein. Maximally effective concentrations of digitalis-like activity had no effect on the enzymatic components of the coupled optical assay as determined by inspection of rates in response to addition of 20-50 μM ADP. The maximal capacity of the coupled optical assay was at least 500-2000 fold greater than the typical maximal hydrolytic rate of the (Na^+ +K^+)ATPase and was not rate limiting under any assay condition described herein.
Competition for ^3 H-ouabain (Amersham Corp. or DuPont-New England Nuclear) binding was carried out in 670 μl of binding buffer comprising, in final concentrations, 10 mM TES-Tris (pH 7.4), 0.5 mM EDTA, 5.0 mM MgCl2 and 5.0 mM Na2 HPO4 (hereinafter "binding buffer") and 50 nM ouabain containing ^3 H-ouabain tracer, and including the unknown sample. Binding was initiated by addition of 0.1-2 μg of purified (Na^+ +K^+)ATPase and the reaction performed for 2 hr at 37° C. […] Trapped ^3 H-ouabain was determined by scintillation counting, following 12 hr of soaking the filters in 4.0 ml of Beckman Ready Protein ™ scintillation cocktail (Beckman, Palo Alto, Calif.). […] All binding data were corrected for quench, and specific binding was expressed as pmol/mg of enzyme protein. […]

(Na^+ +K^+)ATPase [3] = target: T2, (Na^+ +K^+)ATPase; experiment: Inhibition of (Na^+ +K^+)ATPase activity (coupled optical assay); type: biochemical, dog; conditions: inhibition of (Na^+ +K^+)ATPase activity
Method: as §1
The inhibition of (Na^+ +K^+)ATPase was carried out as described above.

[4] = test system: left atria from guinea pigs; experiment: Inotropic properties in left atria from guinea pigs; parameters: species or system guinea pig
Method: Atria were incubated at 37° C. in phosphate buffered saline comprising 130 mM NaCl, 5.4 mM KCl, 1.8 mM MgCl2, 0.4 mM NaH2 PO4, 19 mM NaHCO3 and 5.4 g of glucose (pH 7.3-7.4), and gassed with 95% O2 /5% CO2. Tissues were stimulated at 1 Hz with twice threshold square pulses (0.8 to 1.0 V) of 0.7 to 1.2 msec duration. Resting tension was optimized for maximum isometric force generation. Control records were obtained once the phasic force was stabilized. […] For comparison, 200 nM plant ouabain evoked an inotropic response of 311±41% (N=4 experiments) which returned to normal with a half-time of approximately 5 min upon washout.

[5] = test system: rings of aorta from guinea pigs; experiment: Vasoactive properties in rings of aorta from guinea pigs; parameters: species or system guinea pig
Method: The aortic rings were incubated at 37° C. in phosphate buffered saline. The rings were submaximally contracted for 3 to 7 min, every 35 min, with 0.2 or 1.0 μM histamine. […] The apparent half-time for washout of the augmented tension response in the presence of plant ouabain was also much greater than 60 min.

[6] = Protein binding in plasma; type: in vitro ADME; conditions: EDLF described in the present invention
[7] = test system: catechol-o-methyl transferase (COMT); experiment: Substrate for catechol-o-methyl transferase (COMT); type: in vitro ADME; conditions: EDLF described in the present invention
[8] = 50 ml of plasma equivalents from the UV peak at 32 min

CC1OC(OC2CC(O)C3(CO)C4C(O)CC5(C)C(C6=CC(=O)OC6)CCC5(O)C4CCC3(O)C2)C(O)C(O)C1O (stereo not drawn) [human ouabain]
effect on ouabain-insensitive uptake [1, 8]: no effect
inhibition of ouabain-sensitive ^86 Rb uptake [1, 8]: 80%
Hill coefficient ([1]; inhibition of ouabain-sensitive uptake of ^86 Rb): -0.99
Hill coefficient ((Na^+ +K^+)ATPase [2]): -0.97
Kd ((Na^+ +K^+)ATPase [2]; read-out: calculated apparent Kd value, 50 nM ouabain, 2 hr at 37° C.): 7.7 nM
Hill coefficient ((Na^+ +K^+)ATPase [3]): -1.28
Kd ((Na^+ +K^+)ATPase [3]; read-out: calculated apparent Kd value, 37° C.): 13.9 nM
time to plateau of increase in peak force ([4]; 85 nM): 34 min
activation at 0.17 µM ([4]; Cavia porcellus, read-out: developed force above the control): 294 ± 28%
apparent half-time for washout of the inotropic response ([4]; upon washout): approximately 5 min
effect on baseline tension ([5]; 170 nM human ouabain, 200 nM plant ouabain): no effect
activity at 0.17 µM ([5]; Cavia porcellus, 0.5 h, read-out: histamine-evoked tension, % of control): 150 ± 14%
apparent half-time for washout of the augmented tension response ([5]; upon washout): greater than 60 min
protein binding in plasma [6]: not highly protein bound in plasma
substrate for COMT [7]: not a substrate for COMT
